# Data taken from ChEMBL document CHEMBL4507291 (2021).
# Tests used:
# [1] = target: Tyrosine-protein kinase Blk (Homo sapiens) (UniProt P51451)
# [2] = target: NT-3 growth factor receptor (Homo sapiens) (UniProt Q16288)
# [3] = target: T1, Tyrosine-protein kinase ITK/TSK (Homo sapiens) (UniProt Q08881)
# T1 sequence (whole entry): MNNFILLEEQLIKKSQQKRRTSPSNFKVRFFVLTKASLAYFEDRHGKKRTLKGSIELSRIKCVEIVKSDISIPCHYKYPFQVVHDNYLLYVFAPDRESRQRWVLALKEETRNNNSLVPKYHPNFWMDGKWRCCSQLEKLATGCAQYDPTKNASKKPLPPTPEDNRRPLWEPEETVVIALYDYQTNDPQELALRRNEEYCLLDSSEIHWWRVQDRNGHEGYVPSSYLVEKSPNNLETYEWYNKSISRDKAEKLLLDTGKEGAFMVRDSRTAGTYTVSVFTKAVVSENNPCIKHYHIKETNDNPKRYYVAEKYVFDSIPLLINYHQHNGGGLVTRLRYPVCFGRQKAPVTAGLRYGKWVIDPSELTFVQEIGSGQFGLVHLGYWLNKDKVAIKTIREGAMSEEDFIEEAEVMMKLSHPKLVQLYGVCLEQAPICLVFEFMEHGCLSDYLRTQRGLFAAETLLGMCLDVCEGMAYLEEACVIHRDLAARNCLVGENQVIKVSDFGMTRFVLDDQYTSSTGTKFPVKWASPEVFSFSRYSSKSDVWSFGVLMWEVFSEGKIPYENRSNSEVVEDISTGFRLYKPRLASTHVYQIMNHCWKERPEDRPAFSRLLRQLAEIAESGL
# [4] = tested on: Mast/stem cell growth factor receptor Kit (Homo sapiens), P10721 [D816H]
# [5] = target: Cyclin-dependent kinase 15 (Homo sapiens) (UniProt Q96Q40)
# [6] = target: Serine/threonine-protein kinase 17B (Homo sapiens) (UniProt O94768)
# [7] = target: Dual specificity tyrosine-phosphorylation-regulated kinase 2 (Homo sapiens) (UniProt Q92630)
# [8] = target: Serine/threonine-protein kinase DCLK3 (Homo sapiens) (UniProt Q9C098)
# [9] = tested on: Receptor-type tyrosine-protein kinase FLT3 (Homo sapiens), P36888 [N841I]
# [10] = target: Interferon-induced, double-stranded RNA-activated protein kinase (Homo sapiens) (UniProt P19525)
# [11] = tested on: Tyrosine-protein kinase ABL1 (Homo sapiens), P00519 [M351T]
# [12] = target: Mitogen-activated protein kinase kinase kinase 1 (Homo sapiens) (UniProt Q13233)
# [13] = target: Non-receptor tyrosine-protein kinase TNK1 (Homo sapiens) (UniProt Q13470)
# [14] = target: Serine/threonine-protein kinase MARK2 (Homo sapiens) (UniProt Q7KZI7)
# [15] = target: Protein kinase C theta type (Homo sapiens) (UniProt Q04759)
# [16] = tested on: Phosphatidylinositol 4,5-bisphosphate 3-kinase catalytic subunit alpha isoform (Homo sapiens), P42336 [H1047Y]
# [17] = tested on: Epidermal growth factor receptor (Homo sapiens), P00533 [T790M]
# [18] = tested on: Receptor-type tyrosine-protein kinase FLT3 (Homo sapiens), P36888 [UNDEFINED MUTATION]
# [19] = target: Activin receptor type-2B (Homo sapiens) (UniProt Q13705)
# [20] = target: Phosphatidylinositol 4-phosphate 5-kinase type-1 gamma (Homo sapiens) (UniProt O60331)
# [21] = target: Phosphatidylinositol 3-kinase catalytic subunit type 3 (Homo sapiens) (UniProt Q8NEB9)
# [22] = target: Serine/threonine-protein kinase 32C (Homo sapiens) (UniProt Q86UX6)
# [23] = tested on: Mast/stem cell growth factor receptor Kit (Homo sapiens), P10721 [V559D,T670I]
# [24] = target: Mitogen-activated protein kinase kinase kinase kinase 1 (Homo sapiens) (UniProt Q92918)
# [25] = target: T2, Serine/threonine-protein kinase 4 (Homo sapiens) (UniProt Q13043)
# T2 sequence (whole entry): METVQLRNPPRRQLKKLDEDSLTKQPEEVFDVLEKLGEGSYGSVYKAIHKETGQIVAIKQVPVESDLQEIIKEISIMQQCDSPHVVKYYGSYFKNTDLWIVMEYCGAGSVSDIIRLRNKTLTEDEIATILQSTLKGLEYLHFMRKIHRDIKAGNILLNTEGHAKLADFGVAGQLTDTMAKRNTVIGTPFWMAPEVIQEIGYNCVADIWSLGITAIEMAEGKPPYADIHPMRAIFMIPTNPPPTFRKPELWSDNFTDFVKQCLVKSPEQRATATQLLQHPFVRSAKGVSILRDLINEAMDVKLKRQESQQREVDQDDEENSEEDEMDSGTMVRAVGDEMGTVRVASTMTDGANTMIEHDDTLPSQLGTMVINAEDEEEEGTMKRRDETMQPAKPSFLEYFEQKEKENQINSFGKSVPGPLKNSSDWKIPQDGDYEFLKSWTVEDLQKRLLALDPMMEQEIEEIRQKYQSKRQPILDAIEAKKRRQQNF
# [26] = target: Sodium-dependent serotonin transporter (Homo sapiens) (UniProt P31645); details: Compound concentration 10.0 uM
# [27] = target: Atypical kinase COQ8A, mitochondrial (Homo sapiens) (UniProt Q8NI60)
# [28] = target: 5-hydroxytryptamine receptor 2A (Homo sapiens) (UniProt P28223); details: Compound concentration 10.0 uM
# [29] = Compound concentration 1000.0 nM
# [30] = Compound concentration 100.0 nM
# Chain of Tyrosine-protein kinase Blk (Homo sapiens) (P51451 2-505 limits assumed): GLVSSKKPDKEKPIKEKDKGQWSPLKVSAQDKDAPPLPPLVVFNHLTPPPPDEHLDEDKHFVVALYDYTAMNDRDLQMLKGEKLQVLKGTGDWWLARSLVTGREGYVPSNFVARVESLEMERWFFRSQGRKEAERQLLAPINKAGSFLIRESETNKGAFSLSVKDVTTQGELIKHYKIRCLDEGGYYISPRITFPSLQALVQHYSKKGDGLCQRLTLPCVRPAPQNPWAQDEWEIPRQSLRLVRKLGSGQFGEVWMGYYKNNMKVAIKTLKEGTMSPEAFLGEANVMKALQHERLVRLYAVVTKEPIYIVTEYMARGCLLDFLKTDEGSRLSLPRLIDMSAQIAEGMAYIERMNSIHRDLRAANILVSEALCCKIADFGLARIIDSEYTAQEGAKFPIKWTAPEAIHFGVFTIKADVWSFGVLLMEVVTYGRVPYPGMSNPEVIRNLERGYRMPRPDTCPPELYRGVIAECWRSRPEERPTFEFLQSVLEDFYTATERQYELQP
# Chain of Non-receptor tyrosine-protein kinase TNK1 (Homo sapiens) (Q13470 whole entry): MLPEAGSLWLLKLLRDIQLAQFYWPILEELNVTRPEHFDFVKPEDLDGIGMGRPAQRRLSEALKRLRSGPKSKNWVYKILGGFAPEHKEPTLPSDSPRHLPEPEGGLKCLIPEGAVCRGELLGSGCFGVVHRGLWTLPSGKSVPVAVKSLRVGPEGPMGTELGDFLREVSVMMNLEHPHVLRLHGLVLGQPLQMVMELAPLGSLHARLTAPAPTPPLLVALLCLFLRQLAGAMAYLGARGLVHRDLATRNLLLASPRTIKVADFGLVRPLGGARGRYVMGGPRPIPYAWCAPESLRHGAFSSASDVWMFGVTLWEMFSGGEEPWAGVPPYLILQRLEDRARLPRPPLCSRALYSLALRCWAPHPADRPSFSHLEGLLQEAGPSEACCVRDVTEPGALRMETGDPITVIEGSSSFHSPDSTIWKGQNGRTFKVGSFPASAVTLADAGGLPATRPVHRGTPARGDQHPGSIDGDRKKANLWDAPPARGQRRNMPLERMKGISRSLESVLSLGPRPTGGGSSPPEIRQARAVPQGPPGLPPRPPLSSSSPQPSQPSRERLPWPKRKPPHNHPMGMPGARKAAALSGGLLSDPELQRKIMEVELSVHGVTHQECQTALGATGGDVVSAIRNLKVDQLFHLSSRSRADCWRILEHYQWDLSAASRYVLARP
# Chain of Mast/stem cell growth factor receptor Kit (Homo sapiens), P10721 [D816H] (P10721 whole entry D816H): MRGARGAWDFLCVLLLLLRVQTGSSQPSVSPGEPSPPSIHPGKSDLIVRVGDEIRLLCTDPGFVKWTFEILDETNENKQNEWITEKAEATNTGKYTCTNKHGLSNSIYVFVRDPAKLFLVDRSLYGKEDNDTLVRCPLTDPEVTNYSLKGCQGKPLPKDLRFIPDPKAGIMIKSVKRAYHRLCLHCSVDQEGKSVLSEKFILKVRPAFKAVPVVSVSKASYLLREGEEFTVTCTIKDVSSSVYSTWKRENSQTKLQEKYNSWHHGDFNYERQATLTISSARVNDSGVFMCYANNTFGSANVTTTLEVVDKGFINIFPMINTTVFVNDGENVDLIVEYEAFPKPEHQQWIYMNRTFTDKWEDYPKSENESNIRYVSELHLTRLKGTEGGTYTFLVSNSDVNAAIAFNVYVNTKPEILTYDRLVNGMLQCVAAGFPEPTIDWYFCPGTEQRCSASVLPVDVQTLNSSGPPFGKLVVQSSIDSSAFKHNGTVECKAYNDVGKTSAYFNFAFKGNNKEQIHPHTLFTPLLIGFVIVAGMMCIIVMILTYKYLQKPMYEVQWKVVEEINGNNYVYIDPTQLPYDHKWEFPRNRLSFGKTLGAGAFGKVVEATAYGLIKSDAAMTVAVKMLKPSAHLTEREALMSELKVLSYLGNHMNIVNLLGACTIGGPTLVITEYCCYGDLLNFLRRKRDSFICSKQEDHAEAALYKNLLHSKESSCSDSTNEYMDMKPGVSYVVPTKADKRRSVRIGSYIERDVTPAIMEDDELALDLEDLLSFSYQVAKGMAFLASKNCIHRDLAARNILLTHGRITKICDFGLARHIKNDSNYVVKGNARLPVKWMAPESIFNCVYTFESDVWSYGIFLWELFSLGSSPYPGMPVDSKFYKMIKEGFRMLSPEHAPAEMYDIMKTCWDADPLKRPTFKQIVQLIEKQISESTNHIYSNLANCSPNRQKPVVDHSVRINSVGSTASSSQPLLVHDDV
# Chain of Mast/stem cell growth factor receptor Kit (Homo sapiens), P10721 [V559D,T670I] (P10721 whole entry V559D/T670I): as the sequence (P10721 whole entry D816H) above, with V559D, T670I, H816D counted along it
# Chain of Serine/threonine-protein kinase DCLK3 (Homo sapiens) (Q9C098 whole entry): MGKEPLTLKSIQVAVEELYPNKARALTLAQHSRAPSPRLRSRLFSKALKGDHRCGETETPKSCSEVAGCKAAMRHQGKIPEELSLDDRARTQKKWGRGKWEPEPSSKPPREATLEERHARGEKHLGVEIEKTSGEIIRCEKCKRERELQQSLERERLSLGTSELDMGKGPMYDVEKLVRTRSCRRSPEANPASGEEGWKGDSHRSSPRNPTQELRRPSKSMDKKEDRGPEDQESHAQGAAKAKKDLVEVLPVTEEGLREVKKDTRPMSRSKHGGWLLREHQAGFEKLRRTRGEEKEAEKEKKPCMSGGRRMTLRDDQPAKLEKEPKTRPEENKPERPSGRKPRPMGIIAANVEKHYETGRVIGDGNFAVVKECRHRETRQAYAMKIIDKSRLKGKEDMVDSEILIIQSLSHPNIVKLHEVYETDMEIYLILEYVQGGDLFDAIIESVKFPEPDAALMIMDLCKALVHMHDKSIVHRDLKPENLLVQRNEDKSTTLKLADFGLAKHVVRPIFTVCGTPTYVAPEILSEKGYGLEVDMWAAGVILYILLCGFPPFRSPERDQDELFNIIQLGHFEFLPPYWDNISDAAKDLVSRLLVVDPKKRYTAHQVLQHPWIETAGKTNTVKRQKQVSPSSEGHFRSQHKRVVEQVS
# Chain of Interferon-induced, double-stranded RNA-activated protein kinase (Homo sapiens) (P19525 whole entry): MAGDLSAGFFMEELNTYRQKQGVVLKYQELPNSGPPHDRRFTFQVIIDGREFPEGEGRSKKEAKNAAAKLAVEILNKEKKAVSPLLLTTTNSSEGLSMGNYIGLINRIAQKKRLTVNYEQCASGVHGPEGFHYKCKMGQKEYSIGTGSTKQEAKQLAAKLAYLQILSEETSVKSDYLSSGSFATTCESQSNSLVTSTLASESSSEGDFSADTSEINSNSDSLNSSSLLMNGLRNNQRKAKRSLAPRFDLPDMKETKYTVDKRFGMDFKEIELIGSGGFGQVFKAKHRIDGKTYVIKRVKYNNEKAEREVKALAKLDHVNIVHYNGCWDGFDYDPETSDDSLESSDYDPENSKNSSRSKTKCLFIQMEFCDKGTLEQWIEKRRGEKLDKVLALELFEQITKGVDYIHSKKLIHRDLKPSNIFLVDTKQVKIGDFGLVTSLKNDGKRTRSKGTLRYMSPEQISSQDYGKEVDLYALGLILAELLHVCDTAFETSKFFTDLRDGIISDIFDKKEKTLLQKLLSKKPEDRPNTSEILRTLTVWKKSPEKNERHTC
# Chain of Protein kinase C theta type (Homo sapiens) (Q04759 whole entry, looked up, canonical isoform): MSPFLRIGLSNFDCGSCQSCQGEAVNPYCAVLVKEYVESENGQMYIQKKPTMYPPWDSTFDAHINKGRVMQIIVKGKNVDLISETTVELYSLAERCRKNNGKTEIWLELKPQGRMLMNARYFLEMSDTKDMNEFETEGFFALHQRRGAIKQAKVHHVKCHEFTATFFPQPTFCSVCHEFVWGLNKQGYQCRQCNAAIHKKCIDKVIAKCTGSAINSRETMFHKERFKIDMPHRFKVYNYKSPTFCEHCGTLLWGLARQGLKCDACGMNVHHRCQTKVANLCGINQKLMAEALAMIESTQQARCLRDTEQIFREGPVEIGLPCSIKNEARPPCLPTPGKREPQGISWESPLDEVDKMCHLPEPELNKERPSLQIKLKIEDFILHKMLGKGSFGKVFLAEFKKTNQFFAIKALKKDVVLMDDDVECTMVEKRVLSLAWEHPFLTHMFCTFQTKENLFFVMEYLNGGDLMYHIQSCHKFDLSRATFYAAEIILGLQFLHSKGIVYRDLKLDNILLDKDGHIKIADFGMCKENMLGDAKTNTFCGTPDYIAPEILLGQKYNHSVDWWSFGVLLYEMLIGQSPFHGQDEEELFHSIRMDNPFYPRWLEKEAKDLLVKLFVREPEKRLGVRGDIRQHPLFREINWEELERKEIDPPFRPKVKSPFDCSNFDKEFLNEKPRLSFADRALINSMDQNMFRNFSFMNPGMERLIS
smiles,measurement,setting,value
C[C@@H]1CN(c2cc(-c3nn(C)c4ccc(OC5(C)CC5)cc34)ncn2)C[C@H](C)O1 [MLi-2-NC],residual activity,[1]; [29],95%
same,residual activity,[2]; [29],65%
same,residual activity,[3]; [29],96%
same,residual activity,[4]; [29],64%
same,residual activity,[5]; [29],84%
same,residual activity,[6]; [29],100%
same,residual activity,[7]; [29],83%
same,residual activity,[8]; [29],77%
same,residual activity,[9]; [29],85%
same,residual activity,[10]; [29],100%
same,residual activity,[11]; [29],91%
same,residual activity,[12]; [29],92%
same,residual activity,[13]; [29],95%
same,residual activity,[14]; [29],89%
same,residual activity,[15]; [29],91%
same,residual activity,[16]; [29],100%
same,residual activity,[17]; [29],100%
same,residual activity,[18]; [29],91%
same,residual activity,[19]; [29],98%
same,residual activity,[20]; [29],90%
same,residual activity,[21]; [29],86%
same,residual activity,[22]; [29],100%
same,residual activity,[23]; [29],100%
same,residual activity,[24]; [29],100%
same,residual activity,[25]; [29],100%
same,inhibition,[26],-3.49%
same,residual activity,[27]; [29],100%
same,inhibition,[28],3.31%
C[C@@H]1CN(c2cc(-c3n[nH]c4ccc(OC5(C)CC5)cc34)ncn2)C[C@H](C)O1 [MLi-2],residual activity,[1]; [30],83%
same,residual activity,[2]; [30],86%
same,residual activity,[3]; [30],87%
same,residual activity,[4]; [30],67%
same,residual activity,[5]; [30],100%
same,residual activity,[6]; [30],96%
same,residual activity,[7]; [30],98%
same,residual activity,[8]; [30],92%
same,residual activity,[9]; [30],46%
same,residual activity,[10]; [30],100%
same,residual activity,[11]; [30],95%
same,residual activity,[12]; [30],63%
same,residual activity,[13]; [30],76%
same,residual activity,[14]; [30],100%
same,residual activity,[15]; [30],74%
same,residual activity,[16]; [30],76%
same,residual activity,[17]; [30],100%
same,residual activity,[18]; [30],100%
same,residual activity,[19]; [30],99%
same,residual activity,[20]; [30],92%
same,residual activity,[21]; [30],100%
same,residual activity,[22]; [30],89%
same,residual activity,[23]; [30],95%
same,residual activity,[24]; [30],84%
same,residual activity,[25]; [30],83%
same,inhibition,[26],-2.29%
same,residual activity,[27]; [30],85%
same,inhibition,[28],2.75%
